Here are results for three compounds from paper PMC6071539 (Theranostics, 2018).

For series [1], the system named is Hep 3B. The series can be described thus: In vitro cytotoxicity, MTT assay, Hep 3B. The format is cell-based. As to conditions: Homo sapiens, Hep3B, 72 h, read-out: IC50 ± SD. (Tetrazolium dyes change colour on reduction, which living cells bring about.)
Series [2] in a line: Drug loading and encapsulation efficiency by RP-HPLC. The format is physicochemical. As to conditions: PEG5k-PLA8k NPs, matrices/SN38 feed weight ratio 19:1, n = 3.
The test system of series [3] is BEL-7402. Description: In vitro cytotoxicity, MTT assay, BEL-7402. The format is cell-based. As to conditions: Homo sapiens, Bel-7402, 72 h, read-out: IC50 ± SD.
Series [4] has as its system Hep 3B cells. The series can be described thus: Cell proliferation by EdU incorporation. Conditions: 2 μM SN38 equivalent, 24 h. The format is cell-based, human.
Series [5] is described as follows: Bloody diarrhea and intestinal damage study. The format is in vivo, Balb/c mice.
The conditions of series [6]: clinical; cited from earlier work.
A short description of series [7]: Pharmacokinetics after single i.v. injection. Conditions: Sprague-Dawley, rat, in vivo, iv, 12 mg/kg.
Series [8] has as its system carboxylesterases. As to conditions: in the body, background statement; cited from earlier work.
The test system of series [9] is human HCC PDX tumors. Description: Antitumor activity in human HCC PDX tumor model. Conditions: i.v. x3. The format is in vivo, Balb/c nude mice.
Series [10] deals with advanced HCC. As to conditions: patients with advanced HCC; cited from earlier work.

A value given as a limit tells only on which side of the number the result lay.

What is called IC50 is the midpoint of a concentration-inhibition curve. With `CCc1c2c(nc3ccc(O)cc13)-c1cc3c(c(=O)n1C2)COC(=O)[C@]3(O)CC` [SN38, 7-ethyl-10-hydroxycamptothecin], the results for the IC50 in [1] and in [3] were 7.74 ± 1.18 µM and 2.76 ± 0.16 µM, respectively. For the same compound, in [2], the “EE (encapsulation efficiency)” value is given as less than 5%.
Broadly, the AUC(0-inf) is total exposure, with the tail of the curve extrapolated. Low readings indicate less exposure, high ones more exposure. As a reminder, the AUC(0-t) is exposure summed from dosing to a finite time, without extrapolation to infinity. As a reminder, the Cmax is the maximum level reached in the sampled fluid or tissue. For the compound `CCc1c2c(nc3ccc(OC(=O)N4CCC(N5CCCCC5)CC4)cc13)-c1cc3c(c(=O)n1C2)COC(=O)[C@]3(O)CC` [CPT-11, irinotecan], the “Effect on proliferation (EdU incorporation)” value in series [4] is on record as “negligible effect”. Further, in series [1], the IC50 stood at 49.3 ± 3.3 µM. Moreover, in series [5] (day 9, healthy Balb/c mice), the “Large intestine histology (H&E)” value is “destruction of these tissues by eliminating the glands and causing diffuse mucosal damage”. The “Onset of bloody diarrhea” value in series [5] (healthy Balb/c mice, CPT-11 22.5 mg/kg i.v. x3) was found to be 2 days. Also, the “Incidence of grade 3 or 4 diarrhea” value in series [6] is 31%. Besides, the IC50 in series [3] came out at 42 ± 2.06 µM. In [7], this compound showed an AUC(0-inf) of 68900 ng·h/mL, an AUC(0-t) of 67600 ng·h/mL and a Cmax of 23800 ng/mL. Besides, the “Enzymatic conversion to SN38, share of dosed CPT-11” value in series [8] was “less than 8%”. In addition, in [9], the “Antitumor efficacy” value was “moderate efficacy”.
With `CNC(=O)c1cc(Oc2ccc(NC(=O)Nc3ccc(Cl)c(C(F)(F)F)c3)cc2)ccn1` [sorafenib], the “Extension of median overall survival compared with a placebo” value in series [10] was 2.8 months.
